According to ChEMBL document CHEMBL1268954, “Toward the development of innovative bifunctional agents to induce differentiation and to promote apoptosis in leukemia: clinical candidates and perspectives” (J Med Chem, 2010):

What was measured:
[1] = Inhibition of FTase
[2] = Aqueous solubility of the compound; format: physicochemical; details: aqueous medium
[3] = Induction of apoptosis in human CLL cells; format: functional, cell-based
[4] = biological target: Apoptosis regulator Bcl-2 (Homo sapiens, UniProt P10415); experiment: Binding affinity to BCl2
[5] = Oral bioavailability in mouse; format: ADME, organism-based; details: in vivo
[6] = Oral bioavailability in rat; format: ADME, organism-based; details: in vivo
[7] = Oral bioavailability in dog; format: ADME, organism-based, Canis lupus familiaris; details: in vivo
[8] = Selectivity ratio of IC50 for cathepsin to IC50 for proteasome
[9] = Inhibition of proteasome; format: subcellular
Cathepsin G [10] = biological target: T1, Cathepsin G (Homo sapiens, UniProt P08311); experiment: Inhibition of cathepsin G in human MOLT4 cells; format: cell-based, MOLT-4
T1 sequence (P08311 whole entry): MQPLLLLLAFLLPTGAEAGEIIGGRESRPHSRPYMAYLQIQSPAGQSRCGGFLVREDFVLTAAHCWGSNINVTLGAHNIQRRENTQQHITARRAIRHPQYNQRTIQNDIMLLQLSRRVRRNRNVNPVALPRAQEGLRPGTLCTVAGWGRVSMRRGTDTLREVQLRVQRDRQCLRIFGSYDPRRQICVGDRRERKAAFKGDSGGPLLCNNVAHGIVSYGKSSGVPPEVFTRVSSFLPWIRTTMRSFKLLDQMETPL

Cathepsin G [11] = biological target: T1, Cathepsin G; experiment: Inhibition of cathepsin G

Apoptosis regulator Bcl-2, sequence (P10415 whole entry): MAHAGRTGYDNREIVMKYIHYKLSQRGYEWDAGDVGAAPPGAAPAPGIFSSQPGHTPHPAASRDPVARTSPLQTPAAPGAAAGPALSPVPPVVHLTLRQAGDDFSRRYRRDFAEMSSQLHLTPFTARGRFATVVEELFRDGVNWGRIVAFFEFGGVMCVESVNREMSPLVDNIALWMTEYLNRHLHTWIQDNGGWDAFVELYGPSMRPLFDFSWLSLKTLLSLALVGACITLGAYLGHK

Cn1cncc1[C@](N)(c1ccc(Cl)cc1)c1ccc2c(c1)c(-c1cccc(Cl)c1)cc(=O)n2C [(S)-TIPIFARNIB]
EC50 [1]: 1.8 nM

CN(C)CC[C@H](CSc1ccccc1)Nc1ccc(S(=O)(=O)NC(=O)c2ccc(N3CCN(Cc4ccccc4-c4ccc(Cl)cc4)CC3)cc2)cc1[N+](=O)[O-] [ABT 737]
solubility [2]: < 1 µg/mL
EC50 [3]: 4.5 nM

Cn1cncc1[C@@](N)(c1ccc(Cl)cc1)c1ccc2c(c1)c(-c1cccc(Cl)c1)cc(=O)n2C [TIPIFARNIB]
IC50 [1]: 0.6 nM

CN(C)CC[C@H](CSc1ccccc1)Nc1ccc(S(=O)(=O)NC(=O)c2ccc(N3CCC(C)(C)CC3)cc2)cc1[N+](=O)[O-]
Ki [4]: 62 nM

COC[C@H](NC(=O)c1cnc(C)s1)C(=O)N[C@@H](COC)C(=O)N[C@@H](Cc1ccccc1)C(=O)[C@]1(C)CO1
bioavailability [5]: 17%
bioavailability [6]: 21%
bioavailability [7]: 39%

CC(C)C[C@H](NC(=O)[C@H](Cc1ccccc1)NC(=O)c1cnccn1)B(O)O [BORTEZOMIB]
Ratio IC50 [8]: 200000
IC50 [9]: 0.6 nM

CC(C)C[C@H](NC(=O)[C@@H](NC(=O)c1cccc(-c2ccccc2)n1)[C@@H](C)O)B(O)O [DELANZOMIB]
EC50 (Cathepsin G [10]): 13.5 nM
IC50 (Cathepsin G [11]): 13.7 nM
